The text below walks through data of patent US20180185408A1, “ANTIFUNGAL NYLON-3 POLYMERS AND COMBINATION THERAPY USING THEM TO TREAT FUNGAL INFECTIONS” (priority 2016, published 2018).

The experiment deals with filamentous fungi. The experiment can be described thus: MIC100 against non-Aspergillus filamentous fungi (CLSI M38-A2). The format is cell-based.

Each structure is given as a SMILES string. ≈ marks a conversion by molar mass, not a printed value.

Consider `CCC(C)n1ncn(-c2ccc(N3CCN(c4ccc(OCC5COC(Cn6cncn6)(c6ccc(Cl)cc6Cl)O5)cc4)CC3)cc2)c1=O` (centres unmarked) [Itraconazole, itraconazole], for which 1 µg/mL (≈ 1.42 µM) was the least that counted as inhibitory (Penicillium expansum) (MIC) and the minimum inhibitory concentration (MIC) (Talaromyces marneffei) amounted to 0.125 µg/mL (≈ 0.177 µM).
